Measured values reported in publication PMC12660299, “Isoliquiritigenin Attenuates Staphylococcus aureus Adhesion and Invasion to Counteract Staphylococcus aureus Pathogenicity and Infection” (Frontiers in Cellular and Infection Microbiology, 2025).

Molecular target: T1, sortase A (SrtA) (Staphylococcus aureus, UniProt Q2FV99)
T1 construct: recombinant SrtAΔN59
Test: FRET peptide-cleavage assay with purified recombinant SrtA; supported by fluorescence quenching (Ka = […] L/mol) and reversibility by dilution
Format: biochemical

T1 sequence (Q2FV99 60-206): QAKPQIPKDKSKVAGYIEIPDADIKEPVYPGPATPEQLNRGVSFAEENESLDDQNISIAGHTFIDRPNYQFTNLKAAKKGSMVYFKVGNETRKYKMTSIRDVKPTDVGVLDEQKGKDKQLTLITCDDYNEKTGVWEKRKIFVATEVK

For O=C(/C=C/c1ccc(O)cc1)c1ccc(O)cc1O [ISL, isoliquiritigenin], the IC50 was 52.1 µM.
